Laboratory results reported in US6362166B1, “Antipicornaviral compounds and methods for their use and preparation” (Agouron Pharmaceuticals, Inc., priority 1996, dated 2002).
Where two headings read alike, the source gives them in different places.

Tests used:
[1] = target: T1, Recombinant Rhinovirus 3C protease (RVP) serotype-14 (Human rhinovirus 14, UniProt P03303); assay: Inhibition of Rhinovirus Protease (fluorescence resonance energy transfer assay), serotype 14; format: biochemical, human rhinovirus (HRV); conditions: for INHIB (percent inhibition): 10 minute preincubation with 50 nM RVP; for kobs/I: progress curves in enzyme start experiments
T1 construct: Recombinant Rhinovirus 3C proteases from serotypes 14, 16, 2 or 89; made in house
Method: Stock solution (50 mM, in DMSO) of various compounds were prepared; dilutions were in the same solvent. […] Assays contained 2% DMSO, 50 mM tris pH 7.6, 1 mM EDTA, a compound at the indicated concentrations, approximately 1 μM substrate, and 50-100 nM protease. […] The kobs/I values were obtained from reactions initiated by addition of enzyme rather than substrate. RVP activity is measured in the fluorescence resonance energy transfer assay. […] In the uncleaved peptide, the EDANS fluorescence was quenched by the proximal DABCYL moeity. When the peptide was cleaved, the quenching was relieved, and activity was measured as an increase in fluorescence signal.
In the above table, all data is RVP serotype-14 unless otherwise noted in parentheses. All strains of human rhinovirus (HRV) were purchased from American Type Culture Collection (ATCC), except for serotype 14, which was produced from the infectious cDNA clone constructed and supplied to us by Dr. Roland Rueckert at the Institute for Molecular Virology, University of Wisconsin, Madison, Wisc. […] The data in the column designated kobs/I was measured from progress curves in enzyme start experiments.

HI-HeLa cells = assay: Cytotoxicity in mock-infected HI-HeLa cells (antirhinoviral assay, XTT); format: cell-based
Method: (§1) HI-HeLa cells were infected with HRV-14 at a multiplicity of infection (m.o.i.) of 0.13 (virus particles/cell) or mock-infected with medium only. Infected or mock-infected cells were resuspended at 8×10^5 cells per mL and incubated with appropriate concentration of compounds of formulas I and II. Two days later, XTT/PMS was added to test plates and the amount of formazan produced was quantified spectrophotometrically at 450/650 nm. […] The therapeutic index (TI) was calculated by dividing the CC50 by the EC50.
(§2) All strains of human rhinovirus (HRV) for use in this assay were purchased from American Type Culture Collection (ATCC), except for HRV serotype-14, which was produced from the infectious cDNA clone, constructed and supplied to us by Dr. Roland Rueckert at the Institue for Molecular Virology, University of Wisconsin, Madison, Wisc. HRV stocks were propagated, and antiviral assays were perforemd in HI-HeLa cells (ATCC). Cells were grwon in Minimal Essential Medium, available from Life Technologies, with 10% fetal bovine serum.

HRV-14 = assay: Antirhinoviral HI-HeLa Cell Culture Assay (Cell Protection Assay, XTT dye reduction); format: cell-based, human rhinovirus (HRV) serotype-14; conditions: HI-HeLa cells infected with HRV-14, m.o.i. 0.13; two days; XTT; read-out: EC50
Method: In the Cell Protection Assay, the ability of compounds to protect cells against HRV infection was measured by the XTT dye reduction method. This method is described in Weislow, O. S., R. Kiser, D. L. Fine, J. Bader, R. H. Shoemaker, and M. R. Boyd, J. Natl. Cancer Inst. 1989, 81, 577-586, which is incorporated herein by reference.
as §1, §2
The compounds were tested against control compounds WIN 51711, WIN 52084, and WIN 54954, all obtained from Sterling-Winthrop Pharmaceuticals, and control compound Pirodavir, obtained from Janssen Pharmaceuticals.

[2] = mock-infected HI-HeLa cells, two days, XTT, read-out: CC50

T1 sequence (P03303 1538-1719): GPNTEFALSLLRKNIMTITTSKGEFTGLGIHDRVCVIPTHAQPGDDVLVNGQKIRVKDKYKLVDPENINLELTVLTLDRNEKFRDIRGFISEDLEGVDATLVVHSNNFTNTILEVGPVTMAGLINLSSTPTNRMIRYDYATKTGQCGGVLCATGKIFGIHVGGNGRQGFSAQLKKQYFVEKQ

| SMILES | kobs/I ([1]; RVP serotype-14) | CC50 (HI-HeLa cells) [µM] | EC50 (HRV-14) [µM] | other results |
| --- | --- | --- | --- | --- |
| CC(C)C[C@H](NC(=O)OCc1ccccc1)C(=O)N[C@@H](Cc1ccccc1)C(=O)N[C@H](/C=C/S(=O)(=O)c1ccccc1)CCC(N)=O [Compound 10, Phenyl-[2-(CBZ-L-Leu-L-Phe-L-Gln)-E-Vinyl]Sulfone] | 270 M⁻¹ s⁻¹ | > 320 | 200 | INHIB (percent inhibition) ([1]; RVP serotype-14, 5 μM compound): 55(5) percent |
| CCOC(=O)/C=C/[C@H](CCC(N)=O)NC(=O)[C@H](Cc1ccccc1)NC(=O)[C@H](CC(C)C)NC(=O)SC1CCCC1 [Compound 182] | 114,360 M-1 sec-1 | > 100 | 0.18 |  |
| CC(C)C[C@H](NC(=O)OCc1ccccc1)C(=O)N[C@@H](Cc1ccccc1)C(=O)N[C@H](/C=C/C(=O)OCC1CCCC1)CCC(N)=O [Compound 19, Cyclopentylmethyl-3-(CBZ-L-Leu-L-Phe-L-Gln)-E-Propenoate] | 7,900 M-1 sec-1 | > 100 | 1.35 | Ki ([1]; RVP serotype-14, 10 minute preincubation, substrate start, read-out: INHIB (Ki)): 35 µM |
| CC(=O)N1CC/C(=C\[C@H](CCC(N)=O)NC(=O)[C@H](Cc2ccccc2)NC(=O)[C@H](CC(C)C)NC(=O)OCc2ccccc2)C1=O [Compound 164] | 155,500 M-1 sec-1 | > 100 | 0.71 |  |
| CC(C)C[C@H](NC(=O)OCc1ccccc1)C(=O)N[C@@H](Cc1ccccc1)C(=O)N[C@H](/C=C/C=O)CCC(N)=O [Compound 81] | 124,000 M-1 sec-1 |  | 8 | CC50 (HI-HeLa cells; [2]): 112 µM |
| Cc1ccc(CC(NC(=O)C(NC(=O)SC2CCCC2)C(C)(C)C)C(=O)NC(C=CC(=O)OCc2ccccc2)CCC(N)=O)cc1 (centres unmarked) [Compound 186] | 950,000 M-1 sec-1 |  |  |  |
| CSc1cccc2c1N(C(=O)/C=C/[C@H](CCC(N)=O)NC(=O)[C@H](Cc1ccccc1)NC(=O)[C@H](CC(C)C)NC(=O)OCc1ccccc1)CC2 [Compound 96] | 300 M⁻¹ s⁻¹ |  | 19.1 | CC50 (HI-HeLa cells; [2]): 100 µM |
| CCOC(=O)/C=C/[C@H](CCC(N)=O)NC(=O)[C@H](Cc1ccc(COC)cc1)NC(=O)[C@H](CC(C)C)NC(=O)OCc1ccccc1 [Compound 140] | 7,122 M-1 sec-1 | > 320 | 39 |  |
| CCOC(=O)/C=C/[C@H](CCC(N)=O)NC(=O)[C@H](Cc1ccccc1)NC(=O)[C@H](C)NC(=O)OCc1ccccc1 [Compound 101] | 11,288 M-1 sec-1 |  | 2 | CC50 (HI-HeLa cells; [2]): > 320 µM |
| CCOP(=O)(/C=C/[C@H](CCC(N)=O)NC(=O)[C@H](Cc1ccccc1)NC(=O)[C@H](CC(C)C)NC(=O)OCc1ccccc1)OCC [Compound 20, Diethyl-[2-(CBZ-L-Leu-L-Phe-L-Gln)-E-Vinyl] Phosphonate] |  |  | > 320 | CC50 (HI-HeLa cells; [2]): > 320 µM |
| CCOC(=O)/C=C/[C@H](CCC(N)=O)NC(=O)[C@H](Cc1ccc(C)cc1)NC(=O)[C@@H](NC(=O)SC1CCCC1)C(C)(C)C [Compound 174, Ethyl-3-[Cyclopentylthiocarbonyl-L-α-(t-Butyl-Gly)-L-(4-Me-Phe)-L-Gln]-E-Propenoate] |  |  | 0.056 | CC50 (HI-HeLa cells; [2]): > 100 µM |
| CCOC(=O)C=CC(CCC(N)=O)NC(=O)C(Cc1ccccc1)NC(=O)C(NC(=O)OCc1ccccc1)c1ccccc1 (centres unmarked) [Compound 71] | 20,650 M-1 sec-1 | > 320 | 14.1 |  |
| CCOC(=O)/C(F)=C\[C@H](CCC#N)NC(=O)[C@H](Cc1ccccc1)NC(=O)[C@H](CC(C)C)NC(=O)OCc1ccccc1 [Compound 1, Ethyl-2-Fluoro-3-[CBZ-L-Leu-L-Phe-L-(Cyanomethyl)-Ala]-E-Propenoate] |  |  |  | INHIB (percent inhibition) ([1]; RVP serotype-14): 77 (50) percent |
| CCOC(=O)/C=C/[C@H](CCC(N)=O)NC(=O)[C@H](CSC)NC(=O)[C@H](CC(C)C)NC(=O)OCc1ccccc1 [Compound 142] | 2,929 M-1 sec-1 | > 320 | 8.9 |  |
| CCOC(=O)/C=C/[C@H](CCC(N)=O)NC(=O)[C@H](Cc1ccc(O)cc1)NC(=O)[C@H](CC(C)C)NC(=O)OCc1ccccc1 [Compound 53] | 11,320 M-1 sec-1 | > 320 | 5.3 |  |
| CC(C)C[C@H](NC(=O)OCc1ccccc1)C(=O)N[C@@H](Cc1ccccc1)C(=O)N[C@H](/C=C/S(C)(=O)=O)CCC(N)=O [Compound 9, Methyl-[2-(CBZ-L-Leu-L-Phe-L-Gln)-E-Vinyl]Sulfone] | 160 M⁻¹ s⁻¹ | > 320 | > 320 | INHIB (percent inhibition) ([1]; RVP serotype-14, 1 μM compound): 20(1) percent |
| CC(C)C[C@H](NC(=O)OCc1ccccc1)C(=O)N[C@@H](Cc1ccccc1)C(=O)N[C@H](/C=C/C(=O)N1CCCO1)CCC(N)=O [Compound 79] | 13,900 M-1 sec-1 |  | 45 | CC50 (HI-HeLa cells; [2]): > 320 µM |
| CCOC(=O)/C=C/[C@H](CCC(N)=O)NC(=O)[C@H](Cc1ccccc1)NC(=O)[C@H](CC(C)C)NC(=O)OC [Compound 110] | 9,072 M-1 sec-1 | > 320 | 1.3 |  |
| CCOC(=O)/C=C/[C@H](CCC(N)=O)NC(=O)[C@H](Cc1ccc(C)cc1)NC(=O)[C@@H](NC(=O)OC1CCCC1)C(C)(C)C [Compound 190] | 29,230 M-1 sec-1 |  |  |  |
| COCCOC(=O)/C=C/[C@H](CCC(N)=O)NC(=O)[C@H](Cc1ccc(C)cc1)NC(=O)[C@@H](NC(=O)SC1CCCC1)C(C)(C)C [Compound 188] |  |  |  | Ki [1]: 0.16 µM; kinact/KI ([1]; pH 7.6, read-out: kobs/I): 580000 M⁻¹ s⁻¹ |
| Cc1cc(CCCCCCCOc2ccc(C3=NCCO3)cc2)on1 [WIN 51711, reference compound] |  |  | 0.78 | CC50 (HI-HeLa cells; [2]): > 60 µM |
| CC(C)C[C@H](NC(=O)OCc1ccccc1)C(=O)N[C@@H](Cc1ccccc1)C(=O)NC(/C=C/C#N)CCC(N)=O (mixture of isomers) [Compound 14, 3-(CBZ-L-Leu-L-Phe-DL-Gln)-E-Propenonitrile] |  | 500 | 17.8 |  |
| C/C(=C\[C@H](CCC(N)=O)NC(=O)[C@H](Cc1ccccc1)NC(=O)[C@H](CC(C)C)NC(=O)OCc1ccccc1)C(=O)O [Compound 144] |  | > 320 | 104 |  |
| Cc1cc(CCCCCCCOc2ccc(C3=N[C@@H](C)CO3)cc2)on1 [WIN 52084, reference compound] |  |  | 0.07 | CC50 (HI-HeLa cells; [2]): > 10 µM |
| CC(C)C[C@H](NC(=O)OCc1ccccc1)C(=O)N[C@@H](Cc1ccccc1)C(=O)N[C@H](/C=C/CSc1ccccn1)CCC(N)=O [Compound 75] |  | > 100 | 5 |  |
| CCOC(=O)/C=C/[C@H](CCC(N)=O)NC(=O)[C@H](Cc1ccccc1)NS(=O)(=O)CC [Compound 33, Ethyl-3-[N-(Ethylsulfonyl)-L-Phe-L-Gln]-E-Propenoate] | 33 M⁻¹ s⁻¹ | > 100 |  | INHIB (percent inhibition) ([1]; RVP serotype-14, 10 μM compound): 24(10) percent |
| CC(=O)N1CC/C(=C\[C@H](CCC(N)=O)NC(=O)[C@H](Cc2ccc(F)cc2)NC(=O)[C@@H](NC(=O)SC2CCCC2)C(C)(C)C)C1=O [Compound 189] | 386,000 M-1 sec-1 |  |  |  |
